We go through two compounds from patent US20110009379A1, “INDOLINONE COMPOUND” (ASTELLAS PHARMA INC., priority 2008, published 2011).

For one series, the target named is Cytochrome P450(2D6) (Homo sapiens, UniProt P10635). The series is described as follows: Cytochrome P450(2D6) enzyme inhibition test. In kind it is in vitro ADME. Particulars: CYP2D6, fluorescent substrate 1.5 μmol/L, 37° C., 20 minutes. The protocol: The experiment was performed in accordance with the method of Crespi et al. (Analytical Biochemistry, 248, 188-190, 1997).
Sequence of Cytochrome P450(2D6) (P10635 whole entry): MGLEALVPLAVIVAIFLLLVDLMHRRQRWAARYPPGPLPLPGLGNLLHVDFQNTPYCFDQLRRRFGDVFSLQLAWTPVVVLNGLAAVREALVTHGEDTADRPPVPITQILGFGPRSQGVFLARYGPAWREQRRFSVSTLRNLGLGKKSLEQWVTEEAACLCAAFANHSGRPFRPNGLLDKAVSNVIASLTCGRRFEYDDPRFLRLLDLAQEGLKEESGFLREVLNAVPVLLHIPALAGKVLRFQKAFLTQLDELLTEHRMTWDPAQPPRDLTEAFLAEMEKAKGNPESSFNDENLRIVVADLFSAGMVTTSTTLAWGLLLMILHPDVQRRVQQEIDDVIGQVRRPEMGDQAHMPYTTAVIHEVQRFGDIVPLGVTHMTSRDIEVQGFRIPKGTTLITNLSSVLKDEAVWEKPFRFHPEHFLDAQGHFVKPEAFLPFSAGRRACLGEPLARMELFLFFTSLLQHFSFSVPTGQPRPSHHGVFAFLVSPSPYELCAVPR
As a substrate, 3-[2-(N,N-diethyl-N-methylamino)ethyl]-7-methoxy-4-methyl coumarine (1.5 μmol/L) a compound to be tested (3.1×10^−7 to 2×10^−5 M) and an enzyme (2.5×10^−8 M) were incubated at 37° C. for 20 minutes in total of […] of 100 mM phosphorous buffer (pH=7.4) including 8.2 mM NADP+, 0.41 mM glucose-6-phosphate, 0.41 mM MgCl2 and 0.4 Units/mL glucose-6-phosphate dehydrogenase, using 96 well plates. Then, 0.5 M aqueous 2-amino-2-hydroxymethyl-1,3-propandiol solution containing 80% acetonitrile was added to stop the reaction, fluorescence intensity (excitation wavelength; 390 nm, fluorescent wavelength; 460 nm) was measured with a fluorescent plate reader. An inhibition ratio was calculated with the following formula, and the test compound concentration when the inhibition ratio is 50% (IC50) was obtained.
C1: fluorescence intensity in the presence of the test compound and enzyme at know concentrations, and the substrate
C0: fluorescence intensity in the presence of the enzyme and substrate, without the test compound
B1: fluorescence intensity of blank well

For another series, the system named is RIN14B cells. Put plainly: Measurement of 5-HT secretion from RIN14B. In kind it is cell-based. Particulars: 20 minutes at 37° C., relative to 300 μM allyl isothiocyanate = 100%, HBSS only = 0%. The protocol:
In order to investigate whether TRPA1 is related to 5-HT release, 5-HT secretion promotion from RIN14B by a compound to be tested was measured.
The RIN14B cells cultivated in a petri dish were scraped using Phosphate buffered saline (PBS) containing 1 mM EDTA, distributed into 24 well plates, and cultivated for 2 days. As a medium, a medium in which 10% fetal bovine serum (ICN), 100 U/mL penicillin, and 100 μg/mL streptomycin was added to RPMI1640 (Invitrogen), was used. The cells were washed once with HBSS (Invitrogen) and added with 0.1% BSA and 10 μM fluoxetine (TOCRIS Co.), followed by dilution with the above HBSS, the prepared compound to be tested was added to RIN14B cells, followed by cultivation at 37° C., under 5% CO2 condition for 20 minutes. After cultivation, supernatant of cells was recovered, followed by freeze preservation. The content of 5-HT in the supernatant was measured by a commercial serotonin immunoassay kit (Beckman). 5-HT release promotion activation value (%) was evaluated as a relative value when the 5-HT release promotion value by 300 μM of allyl isothiocyanate was defined as 100%, and the 5-HT release promotion value by HBSS for dilution only was defined as 0%.

Another series concerns the target T1, human TRPA1 (Homo sapiens, UniProt O75762, K186N/R3C/R58T).
T1 construct: expressed in transfected cells; pcDNA3.1(+) vector)
The series is described as follows: Measurement of TRPA1 activation activity (intracellular calcium, FLIPR, HEK293 cells stably expressing human TRPA1). The note with it: change of intracellular calcium concentration. It is filed as cell-based. The protocol: 10 ng of Human brain mRNA (Clontech Co.) was treated with DNase, and then was reverse transcribed using kit for reverse transcription-polymerase chain reaction (RT-PCR) (SUPERSCRIPT First-Strand Synthesis System for RT-PCR; Invitrogen Co.) to synthesize the first strand cDNA. PCR using a hot start method was performed using the first strand cDNA as a template and Taq DNA polymerase (LA Taq DNA polymerase; TAKARA SHUZO). The PCR was performed using oligonucleotides consisting of the nucleotide sequences, represented by sequence number 2 as a sense primer and sequence number 3 as an antisense primer, in which firstly, heat denaturation was performed at 98° C. (1 minute), and then a cycle of 98° C. (15 seconds)/56° C. (30 seconds)/72° C. (5 minutes) was repeated 35 times. As a result, a DNA fragment of about 3.3 kbp was amplified.
The DNA fragment was cloned to pCR-TOPO vector using a cloning kit (TOPO XL PCR Cloning Kit; Invitrogen). The obtained plasmid DNA was digested with restriction enzymes KpnI and HindIII, and then was cloned using plasmid pcDNA 3.1(+)(Invitrogen). In this connection, the plasmid pcDNA 3.1(+) has a promoter sequence derived from cytemegalovirus, and can be used in order to express a protein in animal cells.
The nucleotide sequences of the obtained clones were analyzed using DNA sequencer (ABI3700 DNA Sequencer; Applied Biosystems) by dideoxyterminator method, and the nucleotide sequence represented by sequence number 1 was obtained. Furthermore, when these sequences were translated to amino acid sequences, the amino acid sequence represented by sequence number 1 was obtained.
After constructing the expression vector of the human TRPA1 gene, selection by G418 was performed from the HEK293 cells which temporarily expressed TRPA1 by transfection operation to obtain cells stably expressing TRPA1. The above operation was performed according to known methods (experimental medicine supplementary volume, “Cultivation Cell Experimental Methods for Molecular Biology Study” published by Toshio Kuroki, Namho Hue and Kazuhiro Chida, 1995, Yodosha).
In order to measure the change of the intracellular calcium concentration in the cells stably expressing the human TRPA1, the change of the intracellular calcium concentration when a compound to be tested was added was measured using FLIPR (Molecular Device).
In order to measure the change of the intracellular calcium concentration with FLIPR, the following pretreatment was performed. First of all, assay buffer was prepared which was for adding fluorescent pigment Fluo4-AM (DOJIN) to the cells or washing the cells just before performing FLIPR assay. To a solution (hereinafter, HBSS/HEPES solution) where 20 mL of 1M HEPES (pH 7.4; Invitrogen) was added to 1000 mL of a physiological saline buffer (Hank's Balanced Salt Solution; HBSS) (Invitrogen), was added 10 mL of a solution where 710 mg of probenecid (Sigma) was dissolved into 5 mL of 1M aqueous NaOH solution and 5 mL of HBSS/HEPES solution was further added and mixed, and the assay buffer was thus prepared. Then, 50 μg of Fluo4-AM was dissolved into 22 μL of DMSO (DOJIN), the same amount of 20% pluronic acid (Molecular Probes) was added thereto and mixed, and the mixture was added to the 10.6 mL of the assay buffer where 105 μL of fetal bovine serum was added, to prepare a fluorescent pigment solution. The medium of the cells stably expressing TRPA1 was removed, 100 μL per well of the fluorescent pigment solution was dispensed immediately, followed by cultivation in a CO2 cultivator for 1 hour, and the fluorescent pigment was soaked in the cells. The cells after cultivation were washed using the assay buffer, followed by being set in FLIPR. Furthermore, a test sample, which was added to the cells stably expressing TRPA1, was prepared by using the assay buffer, and at the same time, was set in FLIPR. […]

The subject of series [1] is delay of discharging time induced by loperamide in mice. The series is described as follows: Loperamide induced constipation model (glass bead discharging time). In kind it is in vivo. The note with it: Mus musculus; mice (Slc:ddY, male), 0.3 mg/kg loperamide subcutaneously, compound orally; read-out: ED50 (amount which suppresses 50% of the delay of discharging time induced by loperamide). On the procedure:
It has been known that loperamide as a μ opioid receptor agonist causes convulsive contraction in intestinal tracts. Thus, a delay in the intestinal transport ability due to loperamide is thought as a constipation IBS model.
Mice (Slc:ddY, five-week old, male) fasted from the previous evening of the experiment. On the day of the experiment, the mice were acclimatized to cages for measurement for 1 hour or more, and 0.3 mg/kg of loperamide was administered subcutaneously. After 30 minutes, a compound to be tested was administered orally, ether anesthesia was applied to the mice immediately thereafter, glass beads having diameter of 3 mm were inserted to 2 cm from anus. The mice were returned to the cages for measurement, and the time from waking to discharging of the glass beads was measured. Furthermore, the compound to be tested was dissolved into 10% DMSO, 10% cremophor, and 80% distillated water.
As a result, it has been recognized that there was a delay in the beads discharging time of the loperamide administration group (vehicle group) in comparison with the loperamide non-administration group (control group).
ED50 values (amount of the compound to be tested which suppresses 50% of the delay of discharging time induced by loperamide) of some of the compounds of the formula (I) are shown in Table 3. In this connection, comparative compound 1 is the same compound as comparative compound 1 in Test Example 4.

Each structure is given as a SMILES string.

T1 sequence (O75762 whole entry R3C/R58T/K186N): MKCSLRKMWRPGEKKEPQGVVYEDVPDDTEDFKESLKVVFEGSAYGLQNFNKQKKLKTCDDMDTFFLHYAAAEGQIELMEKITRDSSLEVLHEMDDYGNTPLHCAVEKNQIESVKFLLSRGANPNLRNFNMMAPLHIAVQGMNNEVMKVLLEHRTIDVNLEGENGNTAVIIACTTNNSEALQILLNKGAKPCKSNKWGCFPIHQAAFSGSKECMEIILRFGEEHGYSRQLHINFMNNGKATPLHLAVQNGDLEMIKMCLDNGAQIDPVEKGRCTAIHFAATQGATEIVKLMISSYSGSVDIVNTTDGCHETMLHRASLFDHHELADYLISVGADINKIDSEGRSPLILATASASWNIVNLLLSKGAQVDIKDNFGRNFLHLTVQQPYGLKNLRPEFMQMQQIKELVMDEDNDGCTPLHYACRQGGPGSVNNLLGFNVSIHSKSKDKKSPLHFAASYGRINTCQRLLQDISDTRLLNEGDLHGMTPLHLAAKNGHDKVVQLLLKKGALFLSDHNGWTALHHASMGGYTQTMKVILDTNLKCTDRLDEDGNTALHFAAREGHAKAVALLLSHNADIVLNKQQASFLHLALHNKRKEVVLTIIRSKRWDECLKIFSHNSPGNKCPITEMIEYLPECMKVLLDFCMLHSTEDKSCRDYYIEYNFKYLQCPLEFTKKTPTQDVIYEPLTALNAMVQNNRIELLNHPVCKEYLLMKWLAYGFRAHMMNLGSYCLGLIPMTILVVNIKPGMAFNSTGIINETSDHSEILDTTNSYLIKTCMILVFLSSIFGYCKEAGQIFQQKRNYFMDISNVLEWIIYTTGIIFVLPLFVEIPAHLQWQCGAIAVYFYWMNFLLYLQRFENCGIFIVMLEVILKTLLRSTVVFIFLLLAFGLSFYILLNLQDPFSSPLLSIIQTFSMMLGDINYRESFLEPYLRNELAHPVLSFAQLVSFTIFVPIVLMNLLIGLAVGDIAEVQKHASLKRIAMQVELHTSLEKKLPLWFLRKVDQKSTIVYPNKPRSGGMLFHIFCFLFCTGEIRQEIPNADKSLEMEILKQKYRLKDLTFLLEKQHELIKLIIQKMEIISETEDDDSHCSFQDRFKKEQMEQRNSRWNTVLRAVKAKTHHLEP

By melting point is commonly meant the temperature of the solid-liquid transition. Broadly, the IC50 is the concentration that gives 50% inhibition. Read a low IC50 as greater potency. What is called EC50 is the concentration giving half of the maximal effect. On to `O=C(O)/C=C1/C(=O)N(CC2CCCCC2)c2ccccc21` [Example 15, (2E)-[1-(cyclohexylmethyl)-2-oxo-1,2-dihydro-3H-indol-3-ylidene]acetic acid], for which the melting point fell in the range of 137 to 139 °C. At Cytochrome P450(2D6), this compound returned an IC50 of over 20 µM. Besides, in the series on RIN14B cells, the “5-HT release promotion activation value” was 97.4%. Moreover, the EC50 at human TRPA1 came to 4.4 µM.

The term ED50 denotes the dose that gives a 50% effect, or the effect in half of the subjects. Consider `O=C(O)/C=C1/C(=O)N(CC2CCCC2)c2ccccc21` [Example 26, (2E)-[1-(cyclopentylmethyl)-2-oxo-1,2-dihydro-3H-indol-3-ylidene]acetic acid], for which the melting point was 140 to 142 °C. Further, the 50% effective dose (ED50) in series [1] turned out to be 0.51 mg/kg. At Cytochrome P450(2D6), this compound displayed an IC50 of over 20 µM. For the same compound, the “5-HT release promotion activation value” with RIN14B cells came out at 102.5%. Further, the EC50 at human TRPA1 worked out at 3 µM.
